Results: patent publication US4386076A, “(E)-5-(2-Halogenovinyl)-arabinofuranosyluracil, process for preparation thereof, and uses thereof” (Yamasa Shoyu Kabushiki Kaisha, priority 1979, dated 1983)
Values after ≈ are worked out from the molar mass of the structure shown. Like-named read-outs stand apart in the source and are kept apart here.

Tests used:
HSV-2 = assay: Anti-HSV-2 activity (Pharmacological Test 3); assay type: cell-based, type-2 herpes (HSV-2); details: for anti-HSV-2 activity compared with 5-vinyl-araU: relative to 5-vinyl-araU
Procedure: (§1) In accordance with the Sidwell et al. method (cf. Applied Microbiology, Vol. 22, No. 5, P. 797, 1971), the anti-virus activities of 5-bromovinyl- and 5-chlorovinyl-araU on human embryonic lung fibroblasts (HEL-F) were determined by using as controls 5-iodo-2'-deoxyuridine (IDU) and arabinofuranosyladenine (araA).
(§2) In conformance with Pharmacological Tests 1 and 2, the anti-virus activities and cell proliferations of 5-bromovinyl-araU and 5-chlorovinyl-araU were compared with those of 5-vinyl-araU and 5-bromovinyl-2'-deoxyuridine (5-bromovinyl-dUrd).

HSV-1 = assay: Anti-HSV-1 activity (Pharmacological Test 3); assay type: cell-based, herpes simplex virus type 1; details: for anti-HSV-1 activity compared with 5-vinyl-araU: Test 3, relative to 5-vinyl-araU
Procedure: as §1, §2

VZV [1] = assay: Anti-virus activity on HEL-F, VZV (Pharmacological Test 1, Sidwell et al. method); assay type: cell-based, varicella-zoster virus; details: for MIC: Human alphaherpesvirus 3, read-out: MIC (minimal inhibitory concentration for cytopathogenic effect caused by the infection)
Procedure: as §1
(§3) *MIC = minimal inhibitory concentration for cytopathogenic effect caused
^(3) VZV = varicellazoster virus

HSV, isolate-1 = assay: Anti-virus activity on HEL-F, HSV isolate-1 (Pharmacological Test 1, Sidwell et al. method); assay type: cell-based, herpes simplex virus clinical isolated strain 1; details: for MIC: read-out: MIC (minimal inhibitory concentration for cytopathogenic effect caused by the infection)
Procedure: as §1, §3
^(2) HSV, isolate1 = herpes simplex virus clinical isolated strain 1

[2] = Effect on proliferation of HEL-F (Pharmacological Test 2, Machida et al. method); assay type: cell-based, human; details: human, hel-f cells
Procedure: (§4) The effects of 5-bromovinyl araU and 5-chlorovinyl-araU on proliferation of HEL-F were compared with those of IDU and araA in accordance with the Machida et al. method (cf. Antimicrobial Agents and Chemotherapy, Vol. 16, No. 2, p. 158, 1979).
(§5) In the growth medium of HEL-F under proliferation (culture medium: Eagle's minimal essential medium supplemented with 10% fetal bovine serum) was added a test compound diluted in serial two-fold dilution and then incubated for 4 days. The numbers of increased cells with various concentrations of the compound tested were compared with those of the control groups wherein no compound was added.

HSV-1, VR-3 = assay: Anti-virus activity on HEL-F, HSV-1 VR-3 (Pharmacological Test 1, Sidwell et al. method); assay type: cell-based, herpes simplex virus type 1 VR3 strain
Procedure: as §1, §3
^(1) HSV1, VR3 = herpes simplex virus type 1 VR3 strain

VZV [3] = assay: Anti-VZV activity (Pharmacological Test 3); assay type: cell-based, varicella-zoster virus; details: for MIC: Human alphaherpesvirus 3
Procedure: as §1, §2

[4] = Anti-HEL-F, cell proliferation (Pharmacological Test 3); assay type: cell-based, human; details: human, hel-f cells
Procedure: as §4, §5, §2

HEL-F [5] = assay: Effect on proliferation of HEL-F (Pharmacological Test 2, Machida et al. method); assay type: cell-based, human; details: Test 2, relative to IDU and araA
Procedure: as §4, §5

HEL-F [6] = assay: Anti-HEL-F, cell proliferation (Pharmacological Test 3); assay type: cell-based, human; details: for HEL-F proliferation inhibitory effect compared with 5-bromovinyl-dUrd: Test 3, relative to 5-bromovinyl-dUrd; for cell proliferation inhibiting activity relative to 5-vinyl-araU: Test 3, relative to 5-vinyl-araU
Procedure: as §4, §5, §2

herpes virus = assay: Anti-virus activity, overall statement; assay type: cell-based; details: for anti-virus activity compared with IDU and araA: Test 1, relative to IDU and araA; for anti-virus activity compared with 5-bromovinyl-dUrd: Test 3, relative to 5-bromovinyl-dUrd
Procedure: as §1, §2

[7] = HEL-F under proliferation, incubated for 4 days, Test 2, read-out: ID50 (50% inhibition of proliferation)
[8] = Human alphaherpesvirus 1, HSV-1 VR-3, HEL-F, Test 1, read-out: MIC (minimal inhibitory concentration for cytopathogenic effect caused by the infection)
[9] = Human alphaherpesvirus 2, Test 3, read-out: Anti-HSV-2 MIC
[10] = Human alphaherpesvirus 1, Test 3, read-out: Anti-HSV-1 MIC

Row | SMILES | Anti-HSV-2 VR (HSV-2; Test 3) | anti-HSV-2 activity compared with 5-vinyl-araU (HSV-2) | Anti-HSV-1 VR (HSV-1; Test 3) | VR (virus rating) (VZV [1]) | MIC (VZV [1]) | VR (virus rating) (HSV, isolate-1; HSV isolate-1, HEL-F, Test 1) | MIC (HSV, isolate-1; HSV isolate-1, HEL-F, Test 1) | CC50 at 96 h [2, 7] | VR (virus rating) (HSV-1, VR-3; HSV-1 VR-3, HEL-F, Test 1) | MIC (HSV-1, VR-3; [8]) | MIC (HSV-2; [9]) | Anti-VZV VR (VZV [3]) | MIC (VZV [3]) | CC50 at 96 h [4] | MIC (HSV-1; [10]) | inhibition of cell proliferation compared with IDU and araA (HEL-F [5]) | HEL-F proliferation inhibitory effect compared with 5-bromovinyl-dUrd (HEL-F [6]) | cell proliferation inhibiting activity relative to 5-vinyl-araU (HEL-F [6]) | anti-HSV-1 activity compared with 5-vinyl-araU (HSV-1) | anti-virus activity compared with IDU and araA (herpes virus) | other results
1 | O=c1[nH]c(=O)n([C@H]2C[C@H](O)[C@@H](CO)O2)cc1/C=C/Br [5-bromovinyl-dUrd, 5-bromovinyl-2'-deoxyuridine, reference compound] | 0.7 | inferior to 5-vinyl-araU | 3.7 | – | – | – | – | – | – | – | – | – | – | – | – | – | – | – | – | – | MIC (HSV-2; Human alphaherpesvirus 2, read-out: Anti-HSV-2 MIC): 100 µg/mL (≈ 300 µM); MIC (HSV-1; Human alphaherpesvirus 1, read-out: Anti-HSV-1 MIC): 0.032 µg/mL (≈ 0.0961 µM)
2 | O=c1[nH]c(=O)n([C@H]2C[C@H](O)[C@@H](CO)O2)cc1I [IDU, 5-iodo-2'-deoxyuridine, reference compound] | – | – | – | 2.3 | 3.2 µg/mL (≈ 9.04 µM) | 2.1 | 3.2 µg/mL (≈ 9.04 µM) | 6 µg/mL (≈ 16.9 µM) | 2.4 | 3.2 µg/mL (≈ 9.04 µM) | – | – | – | – | – | – | – | – | – | – | –
3 | C=Cc1cn([C@@H]2O[C@H](CO)[C@@H](O)[C@@H]2O)c(=O)[nH]c1=O [5-vinyl-araU, 5-vinylarabinofuranosyluracil, reference compound] | 2.7 | – | 3.3 | – | – | – | – | – | – | – | 1 µg/mL (≈ 3.7 µM) | 2.9 | 0.32 µg/mL (≈ 1.18 µM) | 650 µg/mL (≈ 2410 µM) | 0.1 µg/mL (≈ 0.37 µM) | – | – | – | – | – | –
4 | O=c1[nH]c(=O)n([C@@H]2O[C@H](CO)[C@@H](O)[C@@H]2O)cc1/C=C/Br [5-bromovinyl-araU, (E)-5-(2-bromovinyl)-1-β-D-arabinofuranosyluracil] | 0.9 | inferior to 5-vinyl-araU | 3.7 | 3.5 | 0.1 µg/mL (≈ 0.286 µM) | 3.8 | 0.032 µg/mL (≈ 0.0917 µM) | > 1000 µg/mL | 3.8 | 0.032 µg/mL (≈ 0.0917 µM) | 100 µg/mL (≈ 286 µM) | 3.5 | 0.1 µg/mL (≈ 0.286 µM) | > 1000 µg/mL | 0.032 µg/mL (≈ 0.0917 µM) | markedly weak inhibition of cell proliferation | less than that of 5-bromovinyl-dUrd | one half relative to 5-vinyl-araU | significantly greater anti-HSV-1 activity | stronger anti-virus activities | anti-HSV-2 activity compared with anti-HSV-1 activity (HSV-2; HSV-2 versus HSV-1): lower than that on type-1 herpes (HSV-1); anti-virus activity compared with 5-bromovinyl-dUrd (herpes virus): potencies similar to that of 5-bromovinyl-dUrd
5 | Nc1ncnc2c1ncn2[C@@H]1O[C@H](CO)[C@@H](O)[C@@H]1O [araA, arabinofuranosyladenine, reference compound] | – | – | – | – | – | 1.9 | – | – | 1.9 | – | – | – | – | – | – | – | – | – | – | – | MIC (HSV, isolate-1): 10 µg/mL (≈ 37.4 µM); CC50 at 96 h [2]: 4 µg/mL (≈ 15 µM); MIC (HSV-1, VR-3; Human alphaherpesvirus 1, read-out: MIC (minimal inhibitory concentration for cytopathogenic effect caused by the infection)): 10 µg/mL (≈ 37.4 µM)
6 | O=c1[nH]c(=O)n([C@@H]2O[C@H](CO)[C@@H](O)[C@@H]2O)cc1/C=C/Cl [5-chlorovinyl-araU, (E)-5-(2-chlorovinyl)-1-β-D-arabinofuranosyluracil] | 0.2 | – | 3.5 | 3.4 | 0.1 µg/mL (≈ 0.328 µM) | 3.1 | 0.1 µg/mL (≈ 0.328 µM) | > 500 µg/mL | 3.3 | 0.1 µg/mL (≈ 0.328 µM) | > 1000 µg/mL | 3.4 | 0.1 µg/mL (≈ 0.328 µM) | 1000 µg/mL (≈ 3280 µM) | 0.1 µg/mL (≈ 0.328 µM) | markedly weak inhibition of cell proliferation | less than that of 5-bromovinyl-dUrd | one half relative to 5-vinyl-araU | significantly greater anti-HSV-1 activity | stronger anti-virus activities | anti-virus activity compared with 5-bromovinyl-dUrd (herpes virus): potencies similar to that of 5-bromovinyl-dUrd
